Measured values taken from PMC5267425, “Identification of small molecule modulators of HIV-1 Tat and Rev protein accumulation” (Retrovirology, 2017).

Legend:
Type in all cases: cell-based
[1] = Trypan blue exclusion, HeLa; conditions: human, HeLa rtTA HIV∆Mls cells
Procedure: Effects of compound treatment on cellular metabolism was assessed by an XTT-based in vitro toxicology assay kit (Sigma-Aldrich) or Trypan blue exclusion (Life Technologies) as proxy for degree of cytotoxicity and expressed relative to DMSO control treatment. For measurement of cell viability using XTT, culture media was removed after 24, 72, and 96 h of compound treatment, replaced with 20% XTT solution and incubated at 37 °C in a 5% CO2 humidified incubator for 2–6 h, and relative cell viability was measured in compound treated cells relative to DMSO-treated cells. Cell viability measurements in CEM-GXR cells are described above.

[2] = tested on: HIV-1 Gag expression in SupT1 NLESG cells; assay: Gag (p24) ELISA in SupT1 24STNLESG cells after PMA induction; conditions: for inhibition of HIV-1 gene expression in CD4+ SupT1 cells: Figure S1; for IC50: Human immunodeficiency virus 1, SUP-T1
Procedure: Additional file 1: Figure S1. 791 and 833 Suppress HIV-1 Gene Expression in SupT1 24NESLG Cell Line. a Schematic of HIV-1 provirus used to generated the stably transduced SupT1 cell line. b Effect of 791 and 833 on Gag expression in SupT1 NLESG cells. Cells were treated with indicated concentrations of 791/833 then HIV-1 expression induced by PMA addition. Media harvested after 24 h was subsequently assayed using Gag (p24) ELISA. Cell viability was measured by an XTT assay. 892 was not active in this cell line at the concentrations tested Additional file 2: Figure S7. Effect of compounds on CEM-GXR cell viability. Evaluation of 791, 833, and 892 on CEM-GXR cell viability in the Guava ViaCount assay. Cells were analyzed after 24 h incubation with the compounds at the indicated concentrations ranging between 0–47 μM (791), 0–5 μM (833), or 0–62.5 μM (892). Results are expressed as the percentage (%) of viable cells relative to DMSO treatment ±SEM of two independent experiments performed in triplicate. Cytotoxic concentration resulting in the death of 50% of the host cells (CC50) relative to DMSO measured by ViaCount assay (Millipore) are listed in Table 1 Additional file 3: Table S1. Mutations in HIV-1 proteins associated with resistance to ARVs Additional file 4: Figure S2.Pattern of HIV-1 RNA splicing. Shown at the top is the organization of the HIV-1 proviral genome indicating the position of the multiple 5′ splice donor sites (SD1–SD4) and 3′ splice acceptor sites (SA1–SA7) used in splicing of pre-mRNA. In the middle is an illustration of the alternatively spliced RNAs generated by processing of the HIV-1 genomic RNA. Indicated are the common (open boxes) and alternative exons (closed boxes) used in the generation of the SS (4 kb) and MS (1.8 kb) viral RNAs. At the bottom is a list of the nomenclature used to refer to the exon composition of the individual RNAs generated for both the SS and MS classes of HIV-1 RNAs Additional file 5: Figure S3. Characterization of HeLa rtTA HIVGagGFP cell line. a Representative images of HeLa rtTA HIVGagGFP C7 cells treated with DMSO in the absence (uninduced) or presence (induced) of doxycyclin (N ≥ 3). Cells were viewed at 630X (oil immersion) magnification. Images are cropped to show a representative field of view. b The dose range of the compounds which inhibit HIV-1 GagGFP expression in HeLa rtTA HIVGagGFP C7 cells was measured by mean fluorescence intensity and expressed relative to fluorescence intensity in DMSO-treated samples (N ≥ 3, *p ≤ 0.05, **p ≤ 0.01, and ***p ≤ 0.001). The effect of the compounds on cellular metabolism at the indicated concentrations was measured using an XTT assay as a readout of viable cells and expressed relative to absorbance reads of DMSO-treated samples (N ≥ 3, *p ≤ 0.05, **p ≤ 0.01, and ***p ≤ 0.001). Error bars indicate standard error of the mean (SEM) Additional file 6: Figure S4. […] MG132 (10 μM) was added for 8 h as an additional control to determine whether inhibition of the proteasome prevents protein degradation. All uninduced (unind.) and 0 h samples were treated with DMSO. GAPDH serves as loading control. b Summary of effect of compounds on HIV-1 Tat degradation. Band volume intensities of both p14 and p16 Tat isoforms were calculated for each treatment relative to that of the DMSO control treatment and were then normalized to corresponding GAPDH bands (N ≥ 3, except for 833, N = 1–2). […]

[3] = tested on: HIV-1 Tat (p14, p16) and Gag; assay: Rescue of Tat/Gag expression by proteasome inhibitor MG132; conditions: MG132 10 μM for 8 h in the presence of compound
Procedure: To assess effect of compounds on HIV-1 Tat stability, the decay of HIV-1 Tat levels was compared between DMSO-treated and compound-treated protein lysates in the presence of cycloheximide. In the first set of experiments, HIV-1 gene expression was induced with doxycylin (dox) for 24 h then 10 μg/mL cycloheximide was added to block new protein synthesis in combination with either DMSO or the compounds. Cells were harvested every 2 h and Tat protein levels measured by western blot. Quantification of the relative intensity of the detected bands was performed using ImageLab software (BioRad) and normalized to corresponding bands of the loading control (GAPDH) from at least three independent experiments. To determine whether the compounds’ effect on HIV-1 gene expression could be reversed by inhibition of the proteasome, compound treatment assay was performed as previously described with the addition of 10 μM MG132 (Sigma-Aldrich) to compound-treated cells 8 h prior to harvesting. Equal amounts of protein were run on 13 or 14% gels by SDS-PAGE, blotted and probed with antibodies for Tat and GAPDH. Quantification of the relative intensity of the detected bands was performed using ImageLab software (BioRad) and normalized to corresponding bands of the loading control (GAPDH) from at least three independent experiments.

| SMILES | CC50 [1] [µM] | inhibition of HIV-1 gene expression in CD4+ SupT1 cells [2] | IC50 [2] [µM] | accumulation of both Tat isoforms on addition of MG132 [3] |
| --- | --- | --- | --- | --- |
| Cc1cc(NCc2cccnc2)n2ncc(-c3ccc(Cl)cc3)c2n1 [Compound 791, 3-(4-chlorophenyl)-5-methyl-N-(3-pyridinylmethyl)pyrazolo[1,5-a]pyrimidin-7-amine] | > 40 | maintained their inhibition | 26 | significant accumulation |
| O=C(NC(=S)NNC(=O)c1ccccc1O)c1ccc(-c2ccccc2)cc1 [Compound 833, N-([2-(2-hydroxybenzoyl)hydrazino]carbonothioyl}-4-biphenylcarboxamide] | > 10 | maintained their inhibition | 3.5 | significant accumulation |
| COc1ccc(C=NNC(=O)c2ccccc2O)cc1O [Compound 892, 2-hydroxy-N′-(3-hydroxy-4-methoxybenzylidene)benzohydrazide] | > 40 | not active | – | significant accumulation |
